Measured values: patent publication US11981677B2, “Further substituted triazolo quinoxaline derivatives” (Grünenthal GmbH, priority 2018, dated 2024)

molecular target: T1, Glucocorticoid Receptor (Homo sapiens, UniProt P04150); assay: Agonistic mode of action on the glucocorticoid receptor (CHO-Gal4/GR luciferase reporter cell line); assay type: cell-based; conditions: CHO-Gal4/GR luciferase reporter cells; observed in the agonistic assay or the antagonistic assay (mode not given); read-out: IC50 or EC50 range
T1 construct: expressed in transfected cells
T1 sequence (P04150 524-758 limits assumed): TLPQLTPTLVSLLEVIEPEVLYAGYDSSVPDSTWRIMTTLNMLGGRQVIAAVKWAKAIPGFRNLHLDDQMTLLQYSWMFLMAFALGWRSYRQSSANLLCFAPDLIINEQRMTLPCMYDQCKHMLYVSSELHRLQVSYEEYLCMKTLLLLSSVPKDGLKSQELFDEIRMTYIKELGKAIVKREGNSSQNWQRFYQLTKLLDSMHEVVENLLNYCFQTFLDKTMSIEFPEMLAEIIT
Source text: Potential selective glucocorticoid receptor modulators of this intervention can be tested for modulation of the activity of the glucocorticoid receptor using cell-based assays. These assays involve a Chinese hamster ovary (CHO) cell line which contains fragments of the glucocorticoid receptor as well as fusion proteins. The glucocorticoid receptor fragments used are capable of binding the ligand (e.g. beclomethasone) to identify molecules that compete for binding with glucocorticoid receptor ligands. In more detail, the glucocorticoid receptor ligand binding domain is fused to the DNA binding domain (DBD) of the transcriptionfactor GAL4 (GAL4 DBD-GR) and is stably integrated into a CHO cell line containing a GAL4-UAS-Luciferase reporter construct. […] After cell lysis the luminescence that is produced by luciferase after addition of the substrate is detected and EC50 or IC50 values can be calculated. Engagement of molecules which induce gene expression via glucocortocoid receptor binding to the DNA leads to expression of the luciferase gene under the control of the fusion protein GAL4 DBD-GR and therefore to a dose-dependent increase of the luminescence signal. Binding of molecules which repress beclomethasone-induced gene expression of the luciferase gene under the control of the fusion protein GAL4 DBD-GR leads to a dose-dependent reduction of the luminescence signal.
The reporter cell line CHO-Gal4/GR consisted of a chinese hamster ovary (CHO) cell line (Leibniz Institute DSMZ—German Collection of Microorganisms and Cell Cultures GmbH: ACC-110) containing a firefly luciferase gene under the control of the GR ligand binding domain fused to the DNA binding domain (DBD) of GAL4 (GAL4 DBD-GR) stably integrated into CHO cells. This cell line was established by stable transfection of CHO cells with a GAL4-UAS-Luciferase reporter construct. In a subsequent step the ligand binding domain of the GR cloned into pIRES2-EGFP-GAL4 containing the DNA binding domain of GAL4 from pFA-AT2 was transfected. This fusion construct activated firefly luciferase expression under the control of a multimerized GAL4 upstream activation sequence (UAS). The signal of the emitted luminescence was recorded by the FLIPR^TETRA. This allowed for specific detection of ligand-induced activation of the GR and therefore for the identification of compounds with agonistic properties. The GAL4/UAS reporter was premixed with a vector that constitutively expressed Renilla luciferase, which served as an internal positive control for transfection efficiency.
The complete culture medium for the assay was: • DMEM F-12 (1:1) MIXTURE (LONZA cat. No: BE04-687F/U1) 500 mL • 5 mL of 100 mM Sodium Pyruvate (LONZA cat. No: BE12-115E) • 25 mL of 7.5% Sodium Bicarbonate (LONZA cat. No BE17-613E) • 6.5 mL of 1 M Hepes (LONZA cat. No: BE17-737E) • 5 mL of 100× Penicillin/Streptomycin (LONZA cat. No DE17-602E) • 50 mL of Fetal Bovine Serum (Euroclone cat. No ECS 0180L) • 0.25 mL of 10 mg/mL Puromycin (InvivoGen cat.: ant-pr-1) • 0.5 mL of 100 mg/mL Zeocin (InvivoGen cat.: ant-zn-1)
Cryo-preserved CHO-Gal4/GR cells were suspended in complete medium and 5000 cells/25 μl/well were seeded into the wells of 384-well polystyrene assay plates (Thermo Scientific, cat. #4332) and cultured at 37° C., 5% CO2 and 95% humidity. After 24 hours growth medium was carefully removed and replaced by 30111 Opti-MEM (GIBCO, cat. #31985062) as assay buffer. To test the compounds an 8-point half-log compound dilution curve was generated in 100% DMSO starting from a 2 mM stock and compounds were then diluted 1:50 in Opti-MEM. 10111 of compounds were then added to the wells containing 30 μl Opti-MEM resulting in a final assay concentration range from 10 μM to 0.003 μM in 0.5% DMSO. Compounds were tested at 8 concentrations in quadruplicate data points. […] Finally, cells were lysed with 20 μl of Triton/Luciferin solution and the signal of the emitted luminescence was recorded at the FLIPR^TETRA for 2 minutes. […]

SMILES | IC50 or EC50 (antagonist or agonist mode, not stated per compound) [nM]
Cc1c(-c2cccc3[nH]ncc23)cc(F)c2c1-n1c(C)nnc1C(C)(C)N2 [Example 504, 6-Fluoro-8-(1H-indazol-4-yl)-1,4,4,9-tetramethyl-5H-[1,2,4]triazolo[4,3-a]quinoxaline] | 100 to 1000
COCCn1ccc2c(-c3cc(F)c4c(c3C)-n3c(C)nnc3C(C)(C)N4)cccc21 [Example 300, 6-Fluoro-8-[1-(2-methoxy-ethyl)-1H-indol-4-yl]-1,4,4,9-tetramethyl-5H-[1,2,4]triazolo[4,3-a]quinoxaline] | 100 to 1000
Cc1n[nH]c2c(-c3cc(F)c4c(c3C(F)F)-n3c(C)nnc3C(C)(C)N4)cccc12 [Example 466, 9-(difluoromethyl)-6-fluoro-1,4,4-trimethyl-8-(3-methyl-1H-indazol-7-yl)-4,5-dihydro-[1,2,4]triazolo[4,3-a]quinoxaline] | 100 to 1000
Cc1c(-c2cccc3c2ccn3S(=O)(=O)CF)cc(F)c2c1-n1c(C)nnc1C(C)(C)N2 [Example 349, 6-Fluoro-8-[1-(fluoro-methylsulfonyl)-1H-indol-4-yl]-1,4,4,9-tetramethyl-5H-[1,2,4]triazolo[4,3-a]quinoxaline] | 100 to 1000
COc1c(-c2cc(F)cc3[nH]ncc23)cc(F)c2c1-n1c(C)nnc1C(C)(C)N2 [Example 495, 6-Fluoro-8-(6-fluoro-1H-indazol-4-yl)-9-methoxy-1,4,4-trimethyl-5H-[1,2,4]triazolo[4,3-a]quinoxaline] | 100 to 1000
COc1c(-c2cc(F)cc3c(C4CC4)c[nH]c23)cc(F)c2c1-n1c(C)nnc1C(C)(C)N2 [Example 478, 8-(3-Cyclopropyl-5-fluoro-1H-indol-7-yl)-6-fluoro-9-methoxy-1,4,4-trimethyl-5H-[1,2,4]triazolo[4,3-a]quinoxaline] | < 100
Cc1nnc2n1-c1c(c(F)cc(-c3cccc4c3ccn4S(C)(=O)=O)c1C(F)F)NC2(C)C [Example 459, 9-(Difluoro-methyl)-6-fluoro-1,4,4-trimethyl-8-(1-methylsulfonyl-1H-indol-4-yl)-5H-[1,2,4]triazolo[4,3-a]quinoxaline] | < 100
COc1c(-c2cc(F)cc3[nH]ccc23)cc(F)c2c1-n1c(C)nnc1C(C)(C)N2 [Example 470, 6-Fluoro-8-(6-fluoro-1H-indol-4-yl)-9-methoxy-1,4,4-trimethyl-5H-[1,2,4]triazolo[4,3-a]quinoxaline] | 100 to 1000
COc1c(-c2cccc3c2ccn3C)cc(F)c2c1-n1c(C)nnc1C(C)(C)N2 [Example 485, 6-Fluoro-9-methoxy-1,4,4-trimethyl-8-(1-methyl-1H-indol-4-yl)-5H-[1,2,4]triazolo[4,3-a]quinoxaline] | 100 to 1000
Cc1c[nH]c2c(-c3cc(F)c4c(c3C(F)F)-n3c(C)nnc3C(C)(C)N4)cc(F)cc12 [Example 462, 9-(Difluoro-methyl)-6-fluoro-8-(5-fluoro-3-methyl-1H-indol-7-yl)-1,4,4-trimethyl-5H-[1,2,4]triazolo[4,3-a]quinoxaline] | < 100

Other lines, results leading:

IC50 or EC50 (antagonist or agonist mode, not stated per compound) [nM] | SMILES
100 to 1000 | COc1c(-c2cc(F)cc3c2ccn3CCO)cc(F)c2c1-n1c(C)nnc1C(C)(C)N2 [Example 55, 2-[6-Fluoro-4-(6-fluoro-9-methoxy-1,4,4-trimethyl-5H-[1,2,4]triazolo[4,3-a]quinoxalin-8-yl)-1H-indol-1-yl]-EtOH]
100 to 1000 | Cc1c(-c2cc(F)cc3c2ccn3CCO)c(F)c(F)c2c1-n1c(C)nnc1C(C)(C)N2 [Example 449, 2-[4-(6,7-Difluoro-1,4,4,9-tetramethyl-5H-[1,2,4]triazolo[4,3-a]quinoxalin-8-yl)-6-fluoro-1H-indol-1-yl]-EtOH]
< 100 | COc1c(-c2cc(F)cc3c2ccn3S(C)(=O)=O)c(F)c(F)c2c1-n1c(C)nnc1C(C)(C)N2 [Example 498, 6,7-Difluoro-8-(6-fluoro-1-methylsulfonyl-1H-indol-4-yl)-9-methoxy-1,4,4-trimethyl-5H-[1,2,4]triazolo[4,3-a]quinoxaline]
< 100 | Cc1c(-c2cc(F)cc3c2cnn3S(C)(=O)=O)c(Cl)c(F)c2c1-n1c(C)nnc1C(C)(C)N2 [Example 525, 7-Chloro-6-fluoro-8-(6-fluoro-1-methylsulfonyl-1H-indazol-4-yl)-1,4,4,9-tetramethyl-5H-[1,2,4]triazolo[4,3-a]quinoxaline]
< 100 | Cc1nnc2n1-c1c(c(F)cc(-c3cc(F)cc4c3ccn4S(C)(=O)=O)c1C1CC1)NC2(C)C [Example 471, 9-Cyclopropyl-6-fluoro-8-(6-fluoro-1-methylsulfonyl-1H-indol-4-yl)-1,4,4-trimethyl-5H-[1,2,4]triazolo[4,3-a]quinoxaline]
100 to 1000 | COc1c(-c2cc(C(F)(F)F)cc3c2ccn3S(C)(=O)=O)cc(F)c2c1-n1c(C)nnc1C(C)(C)N2 [Example 492, 6-Fluoro-9-methoxy-1,4,4-trimethyl-8-[1-methylsulfonyl-6-(trifluoromethyl)-1H-indol-4-yl]-5H-[1,2,4]triazolo[4,3-a]quinoxaline]
100 to 1000 | COc1cc(-c2cc(F)c3c(c2C)-n2c(C)nnc2C(C)(C)N3)c2ccn(S(C)(=O)=O)c2c1 [Example 523, 6-Fluoro-8-(6-methoxy-1-methylsulfonyl-1H-indol-4-yl)-1,4,4,9-tetramethyl-5H-[1,2,4]triazolo[4,3-a]quinoxaline]
100 to 1000 | COc1c(-c2cccc3c2ccn3S(C)(=O)=O)cc(Cl)c2c1-n1c(C)nnc1C(C)(C)N2 [Example 482, 6-Chloro-9-methoxy-1,4,4-trimethyl-8-(1-methylsulfonyl-1H-indol-4-yl)-5H-[1,2,4]triazolo[4,3-a]quinoxaline]
< 100 | Cc1c(-c2cc(F)cc3c2ccn3S(C)(=O)=O)c(F)c(F)c2c1-n1c(C)nnc1C(C)(C)N2 [Example 447, 6,7-Difluoro-8-(6-fluoro-1-methylsulfonyl-1H-indol-4-yl)-1,4,4,9-tetramethyl-5H-[1,2,4]triazolo[4,3-a]quinoxaline]
100 to 1000 | COc1c(-c2cc(C)cc3c2ccn3S(C)(=O)=O)cc(F)c2c1-n1c(C)nnc1C(C)(C)N2 [Example 476, 6-Fluoro-9-methoxy-1,4,4-trimethyl-8-(6-methyl-1-methylsulfonyl-1H-indol-4-yl)-5H-[1,2,4]triazolo[4,3-a]quinoxaline]
< 100 | Cc1c(-c2cccc3c2ccn3S(C)(=O)=O)c(F)c(F)c2c1-n1c(C)nnc1C(C)(C)N2 [Example 448, 6,7-difluoro-1,4,4,9-tetramethyl-8-(1-(methylsulfonyl)-1H-indol-4-yl)-4,5-dihydro-[1,2,4]triazolo[4,3-a]quinoxaline]
